# The supplement of paper PMC11616607
# Legend:
# Test in all cases: drug sensitivity score (DSS) from 5-point dose-response viability curve (DSS (area-under-curve based score)); higher = more sensitive (stronger growth inhibition or killing); extreme values may be limits of the assay
# Details in all cases: exposure time: 72 h; concentration range: 5 concentrations over 10,000-fold range
# HOSE1C = system: HOSE1C
# In short: (§1)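 Drug sensitivity scores were calculated in Breeze software for each cell line and drug pair; higher scores indicate more sensitivity. A score of zero indicates no response. The underlying assay used 384-well plates: drugs were placed by an Echo 550 acoustic dispenser at five concentrations spanning a 10,000-fold range, 1,500 ovarian cancer or normal ovarian cells were added per well, and cells were kept 3 days at 37°C, 5% CO2. Viability was then measured with CellTiter-Glo luminescence on a PHERAstar FS.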
# OVCAR4 = system: OVCAR4
# In short: as §1
# OV90 = system: OV90
# In short: as §1
# HOSE2C = system: HOSE2C
# In short: as §1
# OVCAR5 = system: OVCAR5
# In short: as §1
# Kuramochi = system: Kuramochi
# In short: as §1
# Ovsaho = system: Ovsaho
# In short: as §1
# JHOS2 = system: JHOS2
# In short: as §1
# COV362 = system: COV362
# In short: as §1
# CAOV3 = system: CAOV3
# In short: as §1
# OVCAR8 = system: OVCAR8
# In short: as §1
# COV318 = system: COV318
# In short: as §1
Structure (SMILES),drug sensitivity score (HOSE1C),drug sensitivity score (OVCAR4),drug sensitivity score (OV90),drug sensitivity score (HOSE2C),drug sensitivity score (OVCAR5),drug sensitivity score (Kuramochi),drug sensitivity score (Ovsaho),drug sensitivity score (JHOS2),drug sensitivity score (COV362),drug sensitivity score (CAOV3),drug sensitivity score (OVCAR8),drug sensitivity score (COV318)
CC[C@@H]1[C@H](F)C(=O)N[C@@H]1COc1nccc2cc(C(N)=O)c(OC)cc12,0,0.4,0.6,0,0.6,1.8,2.3,1.3,0,0.9,0.7,0
CCC(C)(C)C(=O)O[C@H]1C[C@@H](C)C=C2C=C[C@H](C)[C@H](CC[C@@H]3C[C@@H](O)CC(=O)O3)[C@H]21 [Simvastatin],8.7,0.7,1.5,8.8,0,1.3,3.5,0.2,0.4,0.1,2.9,0
O=C(c1ccc(C(=O)N2CCC(N3CCCC3)CC2)c(Nc2ccccc2)c1)N1CCC(N2CCCC2)CC1 [UNC1215],0,0,0,0,0,0,0,0,0,0,0,0
FC(F)(F)c1ccc(CNc2ccc(Cc3c[nH]c4ncc(Cl)cc34)cn2)cn1 [Pexidartinib],0,1.3,0.7,0,2.3,0.6,0.1,5,0,0.8,1.8,0.7
Nc1ncn([C@H]2C[C@H](O)[C@@H](CO)O2)c(=O)n1 [Decitabine],0,2.8,0,0.5,2.4,0,0,0,0,2.3,2.8,0
Cc1c(Cn2c(C)nc3c(C(=O)O)cc(N4CCOCC4)cc32)cccc1C(F)(F)F,1.2,0,0,0,0,3.7,3.8,0,0,0,0,0
CCN(CC)CCNC(=O)c1c(C)[nH]c(/C=C2\C(=O)Nc3ccc(-c4csc(-c5ccccc5)n4)cc32)c1C [Amcasertib],8.8,0.8,0,5.2,1.3,0,0,0,0.5,0,0.6,8.8
CNc1nc(Nc2cn(C(C)(C)C#N)nc2C)ncc1C(F)(F)F [GNE-0877],0,0,0,0,0,0,0,0,0,0,0,0
C=CC(=O)N1CCC(Oc2cc3c(Nc4ccc(Cl)c(Cl)c4F)ncnc3cc2OC)CC1 [Poziotinib],0.4,1.3,0,0,3.3,1.9,4.5,0.4,0,13.1,0,0
CNC(=O)c1ccccc1Nc1cc(Nc2ccc(N3CCOCC3)cc2OC)ncc1C(F)(F)F [VS-4718],3.6,6.8,9.2,6,8,11.6,11.4,5.5,4.1,6.1,4.4,5.6
Cc1ccc(NC(=O)c2ccc(CN3CCN(C)CC3)cc2)cc1Nc1nccc(-c2cccnc2)n1 [Imatinib],0.2,0,1.5,0,1.3,,0,0,0.3,0,0.5,0
CC[C@H](CO)Nc1nc(NCc2ccccc2)c2ncn(C(C)C)c2n1 [Seliciclib],1.1,0,0.3,0,3.4,,0.1,1.2,0,0.4,1.6,1.1
CCN(CC)CCCC(C)Nc1ccnc2cc(Cl)ccc12 (stereo not drawn) [Chloroquine],6.3,6.2,10,7.2,8.8,,8.1,,5.5,7.2,5.8,4.9
Nc1ccn([C@@H]2O[C@H](CO)[C@@H](O)[C@@H]2O)c(=O)n1 [Cytarabine],14,0,4.4,6.6,10.6,,2,8.6,2.3,14.9,14.3,1
